Data as given in patent US12365687B2 (Hoffmann-La Roche Inc., priority 2021, dated 2025).

What was measured:
[1] = biological target: human GABAA α5β2γ1 receptor (Homo sapiens (Human), UniProt P31644+Q8N1C3); assay: Radioligand binding assay for γ1-containing GABAA subtypes, [3H]RO7239181 competition (α5β2γ1)
[2] = biological target: human GABAA α2β2γ1 receptor (Homo sapiens (Human), UniProt P47869+Q8N1C3); assay: Radioligand binding assay for γ1-containing GABAA subtypes, [3H]RO7239181 competition (α2β2γ1)
[3] = biological target: human GABAA α1β3γ2 receptor (Homo sapiens (Human), UniProt P14867+P18507); assay: Radioligand binding assay for γ2-containing GABAA subtypes, [3H]Flumazenil competition (α1β3γ2); conditions: for γ2/γ1 Selectivity Ratio: Ki α1β3γ2 (nM)/Ki α2β2γ1 (nM); for LogSel: Log[Ki α1β3γ2 (nM)/Ki α2β2γ1 (nM)]
[4] = biological target: α2β2γ1 GABAA receptor subtype (Homo sapiens (Human), UniProt P47869+Q8N1C3); assay: Two-electrode voltage clamp electrophysiology in Xenopus oocytes expressing GABAA receptors (modulation of GABA EC20 current); format: cell-based; conditions: for Efficacy (GABA)%: % modulation of GABA EC20 = 100*(Fold increase-1), α2β2γ1 oocytes, compound at approx. 30-fold Ki; for Fold increase h-GABA-A α2β2γ1 oocyte @ 30-fold Ki: Xenopus oocytes expressing α2β2γ1, compound at approx. 30-fold its Ki α2β2γ1, GABA EC20 current
Summary of the method: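 Two-electrode voltage clamp at −80 mV, room temperature, 3-5 days after mRNA injection into oocytes. GABA applied at EC20 for 1.5 min, twice, with compound during second application; at least 3 oocytes per concentration. Efficacy = extremum of point-by-point current ratio, expressed as 100×(fold increase−1).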

[5] = Ki h-GABAA α2β2γ1, [3H]RO7239181 competition binding, human GABAA α2β2γ1
[6] = Ki h-GABAA α2β2γ1, displacement of [3H]RO7239181, membranes of HEK293F cells expressing human receptors, means of two determinations

SMILES	Ki [1]	Ki [2, 5]	Ki [2, 6]	Ki [3]	γ2/γ1 Selectivity Ratio [3]	LogSel [3]	Efficacy (GABA)% [4]	Fold increase h-GABA-A α2β2γ1 oocyte @ 30-fold Ki [4]
C[C@@H]1N=C(c2ncccc2F)c2c(ccc(Cl)c2Cl)-n2nc(C(=O)N3CC[C@@H](F)C3)nc21 [Example 78, [(4S)-7,8-dichloro-6-(3-fluoro-2-pyridyl)-4-methyl-4H-[1,2,4]triazolo[1,5-a][1,4]benzodiazepin-2-yl]-[(3R)-3-fluoropyrrolidin-1-yl]methanone]	18.6 nM	96.3 nM	96.3 nM	6900 nM	71.6	1.86	98%	1.98
C[C@@H]1N=C(c2ncccc2F)c2c(ccc(Cl)c2Cl)-n2nc(C(=O)N3CC[C@H](F)C3)nc21 [Example 79, [(4S)-7,8-dichloro-6-(3-fluoro-2-pyridyl)-4-methyl-4H-[1,2,4]triazolo[1,5-a][1,4]benzodiazepin-2-yl]-[(3S)-3-fluoropyrrolidin-1-yl]methanone]	7.8 nM	48.4 nM	48.4 nM	3720 nM	76.8	1.89	129%	2.29
C[C@@H]1N=C(c2c(F)cccc2F)c2c(ccc(Cl)c2Cl)-n2nc(C(=O)N3CC[C@H](F)C3)nc21 [Example 80, [(4S)-7,8-dichloro-6-(2,6-difluorophenyl)-4-methyl-4H-[1,2,4]triazolo[1,5-a][1,4]benzodiazepin-2-yl]-[(3S)-3-fluoropyrrolidin-1-yl]methanone]	1.9 nM	14.3 nM	14.3 nM	979 nM	68.5	1.84	89%	1.89
C[C@@H]1N=C(c2c(F)cccc2F)c2c(ccc(Cl)c2Cl)-n2nc(C3COC3)nc21 [Example 81, (4S)-7,8-dichloro-6-(2,6-difluorophenyl)-4-methyl-2-(oxetan-3-yl)-4H-[1,2,4]triazolo[1,5-a][1,4]benzodiazepine]	1.63 nM	6.4 nM	6.45 nM	563 nM	87.4	1.94	53%	1.53
C[C@@H]1N=C(c2c(F)cccc2F)c2c(ccc(Cl)c2Cl)-n2nc(S(C)(=O)=O)nc21 [Example 82, (4S)-7,8-dichloro-6-(2,6-difluorophenyl)-4-methyl-2-methylsulfonyl-4H-[1,2,4]triazolo[1,5-a][1,4]benzodiazepine]	3.55 nM	19.8 nM	19.8 nM	2130 nM	107.3	2.03	75%	1.75
Cc1nc2n(n1)-c1ccc(C(F)(F)F)c(Cl)c1C(c1ncccc1F)=N[C@H]2C [Example 83, (4S)-7-chloro-6-(3-fluoro-2-pyridyl)-2,4-dimethyl-8-(trifluoromethyl)-4H-[1,2,4]triazolo[1,5-a][1,4]benzodiazepine]	5.54 nM	70.8 nM	70.8 nM	5490 nM	77.6	1.89	154%	2.54
Cc1nc2n(n1)-c1ccc(Cl)c(Cl)c1C(c1ncccc1F)=N[C@H]2C [Example 84, (4S)-7,8-dichloro-6-(3-fluoro-2-pyridyl)-2,4-dimethyl-4H-[1,2,4]triazolo[1,5-a][1,4]benzodiazepine]	2.8 nM	28.4 nM	28.4 nM	977 nM	34.4	1.54	175%	2.75
CCOC1CN(C(=O)c2nc3n(n2)-c2ccc(Cl)c(Cl)c2C(c2ncccc2F)=N[C@H]3C)C1 [Example 86, (3-ethoxyazetidin-1-yl)-[(4S)-7,8-dichloro-6-(3-fluoro-2-pyridyl)-4-methyl-4H-[1,2,4]triazolo[1,5-a][1,4]benzodiazepin-2-yl]methanone]	6.13 nM	37 nM	37 nM	2050 nM	55.4	1.74	97%	1.97
CC1CN(C(=O)c2nc3n(n2)-c2ccc(Cl)c(Cl)c2C(c2ncccc2F)=N[C@H]3C)C1 [Example 87, [(4S)-7,8-dichloro-6-(3-fluoro-2-pyridyl)-4-methyl-4H-[1,2,4]triazolo[1,5-a][1,4]benzodiazepin-2-yl]-(3-methylazetidin-1-yl)methanone]	5.5 nM	55.2 nM	55.2 nM	3290 nM	59.7	1.78	84%	1.84
C[C@@H]1N=C(c2ncccc2F)c2c(ccc(Cl)c2Cl)-n2nc(C(=O)NC3CC3)nc21 [Example 88, (4S)-7,8-dichloro-N-cyclopropyl-6-(3-fluoro-2-pyridyl)-4-methyl-4H-[1,2,4]triazolo[1,5-a][1,4]benzodiazepine-2-carboxamide]	10.1 nM	90.6 nM	90.6 nM	2820 nM	31.2	1.49	162%	2.62
CO[C@H]1CCN(C(=O)c2nc3n(n2)-c2ccc(Cl)c(Cl)c2C(c2ncccc2F)=N[C@H]3C)C1 [Example 89, [(4S)-7,8-dichloro-6-(3-fluoro-2-pyridyl)-4-methyl-4H-[1,2,4]triazolo[1,5-a][1,4]benzodiazepin-2-yl]-[(3S)-3-methoxypyrrolidin-1-yl]methanone]	6.15 nM	69.7 nM	69.7 nM	6350 nM	91.2	1.96	113%	2.13
C[C@@H]1N=C(c2ncccc2F)c2c(ccc(Cl)c2Cl)-n2nc(C(=O)N3CC(OC(F)F)C3)nc21 [Example 90, [(4S)-7,8-dichloro-6-(3-fluoro-2-pyridyl)-4-methyl-4H-[1,2,4]triazolo[1,5-a][1,4]benzodiazepin-2-yl]-[3-(difluoromethoxy)azetidin-1-yl]methanone]	6.09 nM	21.8 nM	21.8 nM	4740 nM	217.2	2.34	104%	2.04
COc1nc2n(n1)-c1ccc(Cl)c(Cl)c1C(c1c(F)cccc1F)=N[C@H]2C [Example 91, (4S)-7,8-dichloro-6-(2,6-difluorophenyl)-2-methoxy-4-methyl-4H-[1,2,4]triazolo[1,5-a][1,4]benzodiazepine]	1.5 nM	23.7 nM	23.7 nM	752 nM	31.7	1.50	75%	1.75
C[C@@H]1N=C(c2c(F)cccc2F)c2c(ccc(Cl)c2Cl)-n2nc(OC3COC3)nc21 [Example 92, (4S)-7,8-dichloro-6-(2,6-difluorophenyl)-4-methyl-2-(oxetan-3-yloxy)-4H-[1,2,4]triazolo[1,5-a][1,4]benzodiazepine]	4.45 nM	44.9 nM	44.9 nM	3280 nM	73.0	1.86	44%	1.44
C[C@@H]1N=C(c2c(F)cccc2F)c2c(ccc(Cl)c2Cl)-n2nc(C(=O)N3CC4(COC4)C3)nc21 [Example 93, [(4S)-7,8-dichloro-6-(2,6-difluorophenyl)-4-methyl-4H-[1,2,4]triazolo[1,5-a][1,4]benzodiazepin-2-yl]-(2-oxa-6-azaspiro[3.3]heptan-6-yl)methanone]	2.25 nM	3.3 nM	3.3 nM	1290 nM	390.6	2.59	75%	1.75
C[C@@H]1N=C(c2c(F)cccc2F)c2c(ccc(Cl)c2Cl)-n2nc(C(=O)N3CC4(CCO4)C3)nc21 [Example 94, [(4S)-7,8-dichloro-6-(2,6-difluorophenyl)-4-methyl-4H-[1,2,4]triazolo[1,5-a][1,4]benzodiazepin-2-yl]-(1-oxa-6-azaspiro[3.3]heptan-6-yl)methanone]	1.43 nM	3.9 nM	3.89 nM	586 nM	150.7	2.18	76%	1.76
